Usually IC50 stands for the midpoint of a concentration-inhibition curve.

Among the data in patent publication US5955616A, “Pyrrolidine derivatives having phospholipase A2 inhibitory activity” (Shionogi & Co., Ltd., priority 1995, dated 1999) are IC50 values, retold here.

This test has as its target T1, cPLA2 (Homo sapiens, UniProt P47712).
T1 sequence (P47712 1-749): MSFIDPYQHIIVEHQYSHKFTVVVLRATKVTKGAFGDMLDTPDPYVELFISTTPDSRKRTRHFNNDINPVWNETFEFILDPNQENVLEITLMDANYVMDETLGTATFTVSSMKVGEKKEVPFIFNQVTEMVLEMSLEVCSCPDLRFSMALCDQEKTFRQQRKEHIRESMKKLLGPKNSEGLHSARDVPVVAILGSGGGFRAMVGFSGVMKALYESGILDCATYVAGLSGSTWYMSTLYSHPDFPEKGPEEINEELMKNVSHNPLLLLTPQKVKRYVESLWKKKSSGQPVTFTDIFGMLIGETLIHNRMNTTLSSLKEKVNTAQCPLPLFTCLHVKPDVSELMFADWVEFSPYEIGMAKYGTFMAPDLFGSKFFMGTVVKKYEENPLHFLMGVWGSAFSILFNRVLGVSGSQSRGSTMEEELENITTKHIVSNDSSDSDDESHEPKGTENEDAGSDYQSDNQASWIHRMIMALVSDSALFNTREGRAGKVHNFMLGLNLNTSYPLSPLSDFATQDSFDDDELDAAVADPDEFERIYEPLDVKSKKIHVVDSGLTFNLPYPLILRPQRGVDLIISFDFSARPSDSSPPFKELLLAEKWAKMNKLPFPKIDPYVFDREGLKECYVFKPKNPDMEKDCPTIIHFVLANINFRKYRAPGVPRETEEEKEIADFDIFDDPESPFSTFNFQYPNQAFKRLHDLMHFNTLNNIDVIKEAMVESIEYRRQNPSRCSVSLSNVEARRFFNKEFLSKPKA
Description: cPLA2 Inhibitory activity (release of radiolabelled fatty acid from liposomes). In kind it is biochemical. Conditions: 50 mM HEPES pH 7.4, 1 mM CaCl2, 2.5 μM radio-labeled phosphatidylcholine, 15 min at 37° C; read-out: cPLA2 Inhibition Activity IC50. How it is done: Experiment 1 cPLA2 Inhibitory activity
The compounds of the present invention was tested for the cPLA2 inhibitory activity by a method known in a literature (R. M. Kramer, E. F. Roberts, J. Manetta and J. E. Putnam, J. Biol. Chem., 268(8), 5268-5272 ([…])), as outlined below.
As a substrate, liposomes which contain 1-palmitoyl-2-[^14 C]-arachidonoyl-sn-glycero-3-phosphocholine and sn-1,2-dioleoylglycerol at the ratio of 2:1 and have treated ultrasonically were used. The substrate was added to a 50 mM HEPES buffer (pH 7.4) (200 μl) containing 1 mM CaCl2, 2 mM dithiothreitol, 150 mM NaCl, 0.1 mg/ml BSA so as to make the concentration of radio-labeled phosphatidylcholine 2.5 μM. To the solution was added a compound of the present invention in DMSO (10 μl) to obtain reaction solutions each containing the test compound at 250 μM, 50 μM, 10 μm, 2 μM, and 0.4 μM. The reaction was allowed to start by adding an enzyme (cPLA2) (4 ng) and continued for 15 min at 37° C.
The amount of fatty acids released by the reaction was measured on a liquid scintillation counter. Control was obtained by conducting the experiment in the same manner except that a compound of the present invention was not added. The inhibitory activity was expressed as percent (%) to the control value, which was used for the calculation of the concentration required for 50% inhibition (IC50, μM).

`O=C1NC(=S)SC1=Cc1ccc(NC(=O)[C@@H]2C[C@H](SCc3ccccc3)CN2C(=O)c2ccccc2)cc1` [Compound A-2]: the IC50 was 7.2 µM. In the case of `Cc1cc(C)c(CS[C@H]2C[C@@H](C(=O)Nc3ccc(C=C4SC(=O)NC4=O)cc3)N(C(=O)c3ccccc3)C2)c(C)c1` [Compound A-10] it was 3.8 µM; in that of `O=CN1C[C@@H](SCc2ccccc2)C[C@H]1C(=O)Nc1ccc(C=C2SC(=S)NC2=O)cc1` [Compound A-13], 20 µM. For the molecule `CC(=O)N1C[C@@H](SCc2ccccc2)C[C@H]1C(=O)Nc1ccc(C=C2SC(=S)NC2=O)cc1` [Compound A-14], the IC50 turned out to be 18 µM. In the case of `CS[C@H]1C[C@@H](C(=O)Nc2ccc(C=C3SC(=S)NC3=O)cc2)N(C(=O)c2ccc(C(F)(F)F)cc2)C1` [Compound A-15] it was 15 µM; in that of `O=C1NC(=S)SC1=Cc1ccc(NC(=O)[C@@H]2C[C@H](SCc3ccccc3)CN2)cc1` [Compound A-18], 16 µM; in that of `CCCCCCCCCCCCCC(=O)N1C[C@@H](SC)C[C@H]1C(=O)Nc1ccc(C=C2SC(=S)NC2=O)cc1` [Compound A-19], 4.3 µM. Consider `CS[C@H]1C[C@@H](C(=O)Nc2ccc(C=C3SC(=S)NC3=O)cc2)N(C(=O)CCc2ccccc2)C1` [Compound A-22], for which the IC50 amounted to 21 µM. Turning to `CCCCS(=O)(=O)N1C[C@@H](SCc2ccccc2)C[C@H]1C(=O)Nc1ccc(C=C2SC(=S)NC2=O)cc1` [Compound A-31], the IC50 was found to be 4.8 µM.

Take `CN(C)S(=O)(=O)N1C[C@@H](SCc2ccccc2)C[C@H]1C(=O)Nc1ccc(C=C2SC(=S)NC2=O)cc1` [Compound A-32]: the IC50 stood at 4.8 µM. Then `CC(C)S(=O)(=O)N1C[C@@H](SCc2ccccc2)C[C@H]1C(=O)Nc1ccc(C=C2SC(=S)NC2=O)cc1` [Compound A-33], with 6.4 µM.

For the molecule `CS[C@H]1C[C@@H](C(=O)Nc2ccc(/C=C3\SC(=S)NC3=O)cc2)N(S(=O)(=O)c2ccc(Br)cc2)C1` [Compound A-34], the IC50 was 6.3 µM.

Take `CS[C@H]1C[C@@H](C(=O)Nc2ccc(/C=C3\SC(=O)NC3=O)cc2)N(S(=O)(=O)c2ccc(Br)cc2)C1` [Compound A-35]: the IC50 is 1.9 µM. With `O=C1NC(=S)S/C1=C\c1ccc(NC(=O)[C@@H]2C[C@H](SCc3ccccc3)CN2S(=O)(=O)N2CCOCC2)cc1` [Compound A-36], the IC50 turned out to be 14 µM. With `CS[C@H]1C[C@@H](C(=O)Nc2ccc(/C=C3\SC(=S)NC3=O)cc2)N(S(=O)(=O)c2ccc(Cc3ccccc3)cc2)C1` [Compound A-47], the IC50 was determined as 6 µM. For `CS[C@H]1C[C@@H](C(=O)Nc2ccc(/C=C3\SC(=S)NC3=O)cc2)N(S(=O)(=O)c2ccc(N(C)C)cc2)C1` [Compound A-49], the IC50 amounted to 17 µM. In the case of `CS[C@H]1C[C@@H](C(=O)Nc2ccc(/C=C3\SC(=O)NC3=O)cc2)N(S(=O)(=O)c2ccc3ccccc3c2)C1` [Compound A-50] it was 12 µM; in that of `O=C1NC(=S)S/C1=C\c1ccc(NC(=O)[C@@H]2C[C@H](SCc3ccccc3)CN2S(=O)(=O)c2cccc3cccnc23)cc1` [Compound A-51], 6.3 µM; in that of `O=C1NC(=S)S/C1=C\c1ccc(NC(=O)[C@@H]2C[C@H](SCc3ccccc3)CN2S(=O)(=O)c2ccc(N=Nc3ccccc3)cc2)cc1` [Compound A-57], 4.7 µM. Consider `CC(=O)Nc1nc(C)c(S(=O)(=O)N2C[C@@H](SCc3ccccc3)C[C@H]2C(=O)Nc2ccc(/C=C3\SC(=S)NC3=O)cc2)s1` [Compound A-59], for which the IC50 is 8.6 µM. In the case of `O=C1NC(=S)O/C1=C\c1ccc(NC(=O)[C@@H]2C[C@H](SC(c3ccccc3)(c3ccccc3)c3ccccc3)CN2S(=O)(=O)c2ccc(-c3ccccc3)cc2)cc1` [Compound A-63] it was 3.2 µM. Then `O=C1NC(=O)C(=Cc2ccc(S(=O)(=O)NC[C@@H]3C[C@H](SC(c4ccccc4)c4ccccc4)CN3C(=O)c3ccccc3)cc2)S1` [Compound B-8], with 1.3 µM; and `O=C1NC(=O)C(=Cc2ccc(S(=O)(=O)NCC3CC(SC(c4ccccc4)(c4ccccc4)c4ccccc4)CN3C(=O)c3ccccc3)cc2)S1` (stereo not shown) [Compound B-9], with 0.44 µM. In the case of `O=C1NC(=O)/C(=C/c2ccc(COC[C@@H]3C[C@H](SC(c4ccccc4)(c4ccccc4)c4ccccc4)CN3C(=O)CCc3ccccc3)cc2)S1` [Compound E-1] it was 1.1 µM. `O=C1NC(=O)/C(=C/c2ccc(CCC[C@@H]3C[C@H](SC(c4ccccc4)(c4ccccc4)c4ccccc4)CN3C(=O)CCc3ccccc3)cc2)S1` [Compound E-3]: the concentration for half-maximal inhibition (IC50) worked out at 0.85 µM. For the molecule `O=C1NC(=O)C(=Cc2ccc(OC[C@@H]3C[C@H](SCc4ccccc4)CN3C(=O)c3ccccc3)cc2)S1` [Compound E-5], the IC50 was found to be 7.7 µM. Then `O=C1NC(=S)SC1=C[C@@H]1C[C@H](SCc2ccccc2)CN1S(=O)(=O)c1ccc(-c2ccccc2)cc1` [Compound F-2], with 10 µM.

Regarding `CC(C)=CCC/C(C)=C/COC1C[C@@H](C(=O)Nc2ccc(/C=C3\SC(=O)NC3=O)cc2)N(C(=O)c2ccccc2)C1` (stereo partly shown) [Compound G-1], the IC50 was 9 µM. `O=C1NC(=O)/C(=C/c2ccc(NC(=O)[C@@H]3CC(OCc4ccc(F)cc4)CN3C(=O)c3ccccc3)cc2)S1` (stereo partly shown) [Compound G-2]: the IC50 was 20 µM.

Consider `O=C1NC(=O)/C(=C/c2ccc(NC(=O)[C@@H]3CC(OCc4ccc(Cl)cc4)CN3C(=O)c3ccccc3)cc2)S1` (stereo partly shown) [Compound G-3], for which the IC50 is 17 µM.

Regarding `O=C1NC(=O)/C(=C/c2ccc(NC(=O)[C@@H]3CC(OCc4ccc(C(F)(F)F)cc4)CN3C(=O)c3ccccc3)cc2)S1` (stereo partly shown) [Compound G-4], the 50% inhibitory concentration (IC50) was determined as 14 µM.

For `Cc1cc(C)c(COC2C[C@@H](C(=O)Nc3ccc(C=C4SC(=O)NC4=O)cc3)N(C(=O)c3ccccc3)C2)c(C)c1` (stereo partly shown) [Compound G-6], the half-inhibitory concentration (IC50) worked out at 10 µM. For the molecule `O=C1NC(=O)/C(=C/c2ccc(NC(=O)[C@@H]3CC(OC(c4ccccc4)c4ccccc4)CN3C(=O)c3ccccc3)cc2)S1` (stereo partly shown) [Compound G-9], the IC50 was determined as 4.2 µM.

Take `O=C1NC(=O)/C(=C/c2ccc(C(=O)NC[C@@H]3CC(OC(c4ccccc4)c4ccccc4)CN3C(=O)c3ccccc3)cc2)S1` (stereo partly shown) [Compound H-1]: the IC50 was determined as 6.7 µM. Then `O=C1NC(=O)/C(=C/c2ccc(C(=O)NC[C@@H]3CC(OCc4ccc(F)cc4F)CN3S(=O)(=O)Cc3ccc(Br)cc3)cc2)S1` (stereo partly shown) [Compound H-2], with 8.1 µM; and `Cc1ccc(CS(=O)(=O)N2CC(OCc3ccc(F)cc3F)C[C@H]2CNC(=O)c2ccc(/C=C3\SC(=O)NC3=O)cc2)cc1` (stereo partly shown) [Compound H-3], with 14 µM; and `COC1C[C@@H](CNC(=O)c2ccc(/C=C3\SC(=O)NC3=O)cc2)N(S(=O)(=O)c2ccc(Cc3ccccc3)cc2)C1` (stereo partly shown) [Compound H-4], with 26 µM. Take `O=C1NC(=O)/C(=C/c2ccc(C(=O)NC[C@@H]3CC(OCc4ccc(F)cc4F)CN3S(=O)(=O)c3ccc(Cc4ccccc4)cc3)cc2)S1` (stereo partly shown) [Compound H-5]: the IC50 was determined as 6.4 µM. In the case of `CC(C)(C)OC(=O)N1CC(OCc2ccc(F)cc2F)C[C@H]1CNC(=O)c1ccc(/C=C2\SC(=O)NC2=O)cc1` (stereo partly shown) [Compound H-6] it was 1.7 µM; in that of `CC(C)(C)OC(=O)N1CC(OCc2ccc(F)cc2F)C[C@H]1CNC(=O)c1ccc(/C=C2\SC(=S)NC2=O)cc1` (stereo partly shown) [Compound H-7], 11 µM; in that of `O=C1NC(=O)/C(=C/c2ccc(C(=O)NC[C@@H]3C[C@H](OC(c4ccccc4)c4ccccc4)CN3C(=O)c3cccc(OCN4C(=O)c5ccccc5S4(=O)=O)c3)cc2)S1` [Compound H-12], 6.2 µM. On to `O=C1NC(=O)/C(=C/c2ccc(C(=O)NC[C@@H]3C[C@H](OC(c4ccccc4)c4ccccc4)CN3C(=O)c3ccc(OCN4C(=O)c5ccccc5S4(=O)=O)cc3)cc2)S1` [Compound H-13], for which the IC50 amounted to 4.4 µM. Then `CC(C)(C)[Si](C)(C)N1C(=O)C[C@H]1C(=O)N1C[C@@H](OC(c2ccccc2)c2ccccc2)C[C@H]1CNC(=O)c1ccc(/C=C2\SC(=O)NC2=O)cc1` [Compound H-14], with 8.2 µM.
